Test results reported in US20250161273A1, “PHARMACEUTICAL COMPOSITION COMPRISING DIPHENYLDIAZOLE DERIVATIVES AND METHODS OF USE” (MODAG GMBH, priority 2022, published 2025).

Assay: phase 1 first-in-human trial, safety and tolerability
Type: in vivo
Experimental: Anle138b was studied in a single-centre, double-blind, randomised, placebo-controlled single ascending dose (SAD) and multiple ascending dose (MAD) study in healthy subjects. Eligible participants were randomly assigned (1:1 for sentinel subjects and 1:5 for main group) to placebo or anle138b (dose ranging from 50 mg to 300 mg per day), respectively. In addition, the effect of food on the pharmacokinetics (PK) of anle138b in healthy subjects was examined at doses of 150 mg per day (FES, food effect study). Participants were randomized to treatment sequence (fed→fasted) or (fasted→fed). Treatment for the SAD, MAD and FES arms of the study was administered orally in hard gelatin capsules containing either 10 mg or 30 mg of anle138b with excipient (i.e., lauroyl polyoxyl-32 glycerides) or excipient only. The primary endpoints were safety and tolerability, the secondary endpoint was pharmacokinetics. Data from all randomized individuals were evaluated. [Clinicaltrials.gov-identifier: NCT04208152. EudraCT-number: 2019-004218-33] […]
In SAD, subjects received a single dose of anle138b or placebo after fasting from all food and drink (except water) for a minimum of 8 h prior to dosing. […] The following data were analyzed: Adverse events, vital signs, safety laboratory, ECG, physical examinations, plasma concentrations of anle138b with interim PK parameter estimations (Tmax, Cmax, AUC0-24, AUC0-tau, AUC0-last and T½, where applicable). […]
Outcome measures: The primary objective was to assess the safety and tolerability of single (SAD) and multiple (MAD) ascending doses of anle138b to healthy subjects in the fasted state and to assess the safety and tolerability of single doses of anle138b in both the fasted and fed state (FES). To this end, adverse events (AEs), clinical laboratory tests, vital signs, electrocardiograms (ECGs), QT interval corrected for heart rate using Fridericia's formula (QTcF), and physical examination findings were recorded. […]

## Brc1cccc(-c2cc(-c3ccc4c(c3)OCO4)n[nH]2)c1 [anle138b, 3-(1,3-benzodioxol-5-yl)-5-(3-bromophenyl)-1H-pyrazole]
Food effect study, 150 mg, fasted and fed conditions
  safety and tolerability (in words): safe and well tolerated
Healthy subjects, any part of the study
  serious adverse events (in words): no serious adverse events
Healthy subjects, up to 300 mg daily for up to 7 consecutive days
  safety and tolerability (in words): safe and well tolerated at all dose levels
